In ChEMBL document CHEMBL3885861, “Open TG-GATES”:

Species: Rattus norvegicus
Test: Open TG-GATES - Regimen: Single
Format: toxicity, organism-based, Sprague-Dawley
Design: regimen Single, gender Male, age 6 weeks
Conditions: in vivo, po, route gavage; for KIDNEY_L / KIDNEY_R / KIDNEY_TOTAL: tissue Kidney; for LIVER: tissue Liver
[1] = 0 mg/kg, 24 h, tissue Plasma, dose level Control
[2] = 40 mg/kg, 3 h, tissue Blood, dose level Low
[3] = 40 mg/kg, 3 h, tissue Plasma, dose level Low
[4] = 40 mg/kg, 6 h, tissue Blood, dose level Low
[5] = 40 mg/kg, 6 h, tissue Plasma, dose level Low

CCC(C)(C)C(=O)O[C@H]1C[C@@H](C)C=C2C=C[C@H](C)[C@H](CC[C@@H]3C[C@@H](O)CC(=O)O3)[C@H]21 [SIMVASTATIN]
TG [1]: 76.6 mg/dL
TP [1]: 5.5 g/dL
gamma-GTP [1]: 1.6 IU/L
TERMINAL_BW (40 mg/kg, 3 h, dose level Low): 203.4 g
Bas [2]: 0%
Eos [2]: 0.6%
Fbg [2]: 213.2 mg/dL
Hb [2]: 12.4 g/dL
Ht [2]: 37.8%
Lym [2]: 81.6%
MCHC [2]: 32.8%
Mono [2]: 6%
Neu [2]: 12%
PT [2]: 11 s
Plat [2]: 112.7 x10_4/uL
RBC [2]: 568 x10_4/ul
Ret [2]: 10%
WBC [2]: 120.8 x10_2/uL
KIDNEY_L (40 mg/kg, 3 h, dose level Low): 0.9 g
KIDNEY_R (40 mg/kg, 3 h, dose level Low): 0.9 g
KIDNEY_TOTAL (40 mg/kg, 3 h, dose level Low): 1.9 g
LIVER (40 mg/kg, 3 h, dose level Low): 9.7 g
ALP [3]: 793.6 IU/L
ALT [3]: 31.4 IU/L
AST [3]: 61.6 IU/L
BUN [3]: 13.6 mg/dL
CRE [3]: 0.6 mg/dL
Ca [3]: 10.8 mg/dL
DBIL [3]: 0.04 mg/dL
IP [3]: 8.9 mg/dL
K [3]: 4.4 meq/L
LDH [3]: 91.8 IU/L
Na [3]: 137.8 meq/L
PL [3]: 144.6 mg/dL
RALB [3]: 3.8 g/dL
TBIL [3]: 0.3 mg/dL
TC [3]: 77.4 mg/dL
TG [3]: 71.2 mg/dL
TP [3]: 5.6 g/dL
gamma-GTP [3]: 1.4 IU/L
TERMINAL_BW (40 mg/kg, 6 h, dose level Low): 196.1 g
Bas [4]: 0%
Eos [4]: 1%
Fbg [4]: 216.2 mg/dL
Hb [4]: 13.4 g/dL
Ht [4]: 41.2%
Lym [4]: 81.6%
MCH [4]: 21.8 pg
MCHC [4]: 32.6%
Mono [4]: 7.4%
Neu [4]: 10.2%
Plat [4]: 112.9 x10_4/uL
RBC [4]: 615.8 x10_4/ul
Ret [4]: 9.1%
WBC [4]: 93.2 x10_2/uL
KIDNEY_L (40 mg/kg, 6 h, dose level Low): 0.9 g
KIDNEY_R (40 mg/kg, 6 h, dose level Low): 0.9 g
KIDNEY_TOTAL (40 mg/kg, 6 h, dose level Low): 1.8 g
LIVER (40 mg/kg, 6 h, dose level Low): 8.7 g
ALP [5]: 826.8 IU/L
ALT [5]: 32.8 IU/L
AST [5]: 58.6 IU/L
CRE [5]: 0.5 mg/dL
Ca [5]: 10.2 mg/dL
DBIL [5]: 0.08 mg/dL
IP [5]: 9.6 mg/dL
K [5]: 4.4 meq/L
LDH [5]: 98.4 IU/L
Na [5]: 137.6 meq/L
PL [5]: 132.4 mg/dL
RALB [5]: 3.6 g/dL
